Measured values from publication PMC10949855 (Journal of veterinary pharmacology and therapeutics, 2022).
Entries after “also recorded” stand apart in the source; their conditions may differ. Like-named read-outs stand apart in the source and are kept apart here.

Experiments:
dogs [1] = conditions: cited from earlier work
[2] = after SC and IM administration at 0.25 mg/kg, dogs; ref Pfeffer et al., 1980; cited from earlier work
[3] = Pharmacokinetics of butorphanol in plasma; conditions: for AUC(0-inf): AUCinf
healthy dogs [4] = experiment: Adverse effects observed after administration; conditions: SC 0.4 mg/kg
dogs [5] = conditions: SC, ref Pircio et al., 1976; cited from earlier work
[6] = tested on: dogs undergoing soft tissue surgery; conditions: 0.4 mg/kg IV, ref Gomes et. al., 2020; cited from earlier work
dogs [7] = conditions: cited from earlier work; remark: listed apart in the source
healthy dogs [8] = experiment: Rectal temperature change from baseline; format: in vivo, dogs (Beagles); conditions: SC 0.4 mg/kg, n=6, P<0.05
[9] = 0.4 mg/kg IV, ref Wegner et al., 2008
[10] = both, Beagle, dog, in vivo, iv, 0.4 mg/kg, IV bolus 0.4 mg/kg IV, geometric mean, n=6
[11] = both, Beagle, dog, in vivo, sc, 0.4 mg/kg
[12] = both, Beagle, dog, in vivo, sc, 0.4 mg/kg, SC 0.4 mg/kg, geometric mean, n=6

In the case of `Oc1ccc2c(c1)[C@@]13CCCC[C@@]1(O)[C@@H](C2)N(CC1CCC1)CC3` [butorphanol], the “thermal antinociception compared to hydromorphone at 0.1 mg/kg IV” value (dogs [1]; [9]) is given as “equianalgesic peak effects and duration”, the “time of peak effect, thermal antinociception” value (dogs [1]; [9]) is given as 1 h and the “time of peak antinociceptive effect after IV administration” value (dogs [1]; IV, ref Wegner et al 2008) is given as 60 min. For the same molecule, the CMAX range [2] was 25 to 33 ng/mL, the terminal half-life [2] was 1.5 to 1.7 h and the “Css (steady state plasma concentration)” value ([3]; IV CRI: 0.2 mg/kg IV loading dose then 0.2 mg/kg/hr for 8 hours, geometric mean, n=5) was 43.1 ng/mL. For the same molecule, the AUC extrapolated ([3]; IV bolus 0.4 mg/kg IV, geometric mean, n=6) was 1.0%, the AUC extrapolated ([3]; SC 0.4 mg/kg, geometric mean, n=6) was 2.5% and the half-life ([3]; both, Beagle, dog, in vivo, half-life, dogs, overall statement of abstract) was roughly 1.5 h. It also gave a concentration at 5 min ([3]; both, Beagle, dog, in vivo, iv, 0.4 mg/kg) of 144 ng/mL, an AUC(0-inf) [3, 10] of 143 ng·h/mL and a C0 ([3]; both, Beagle, dog, in vivo, iv, 0.4 mg/kg, C0, IV bolus 0.4 mg/kg IV, geometric mean, n=6) of 183 ng/mL. It also gave a clearance ([3]; both, Beagle, dog, in vivo, iv, 0.4 mg/kg, Cl, IV bolus 0.4 mg/kg IV, geometric mean, n=6) of 46.5 mL/min/kg, an MRT [3, 10] of 1.26 h and a half-life ([3]; both, Beagle, dog, in vivo, iv, 0.4 mg/kg, T ½ λz, IV bolus 0.4 mg/kg IV, geometric mean, n=6) of 1.47 h. The Vd ([3]; both, Beagle, dog, in vivo, iv, 0.4 mg/kg, Vss, IV bolus 0.4 mg/kg IV, geometric mean, n=6) was 3.51 L/kg, the Vd ([3]; both, Beagle, dog, in vivo, iv, 0.4 mg/kg, Vz, IV bolus 0.4 mg/kg IV, geometric mean, n=6) was 5.91 L/kg and the k el ([3]; both, Beagle, dog, in vivo, iv, 0.4 mg/kg, λz, IV bolus 0.4 mg/kg IV, geometric mean, n=6) was 0.000131 s⁻¹. For the same molecule, the half-life ([3]; both, Beagle, dog, in vivo, iv, T ½ λz, IV CRI: 0.2 mg/kg IV loading dose then 0.2 mg/kg/hr for 8 hours, geometric mean, n=5) was 1.42 h, the k el ([3]; both, Beagle, dog, in vivo, iv, λz, IV CRI: 0.2 mg/kg IV loading dose then 0.2 mg/kg/hr for 8 hours, geometric mean, n=5) was 0.000136 s⁻¹ and the Cmax [3, 11] was 74.2 ng/mL. It also gave a TMAX [3, 11] of 0.21 h, an AUC(0-inf) [3, 12] of 123 ng·h/mL and an MRT [3, 12] of 2.09 h. For the same molecule, the half-life ([3]; both, Beagle, dog, in vivo, sc, 0.4 mg/kg, T ½ λz, SC 0.4 mg/kg, geometric mean, n=6) was 1.83 h, the k el ([3]; both, Beagle, dog, in vivo, sc, 0.4 mg/kg, Λz, SC 0.4 mg/kg, geometric mean, n=6) was 0.000105 s⁻¹ and the hypersalivation (healthy dogs [4]) was 2/6. For the same molecule, the “dose of maximum effect on miosis” value (dogs [5]) was 0.25 mg/kg, the “analgesia in clinical trial” value [6] was “insufficient analgesia” and the “antinociception, colonic distension model” value (dogs [7]; 0.4 mg/kg IV, 30 minutes (latest time point assessed), ref Houghton, et. al., 1991) was “significant effects; also recorded: significant antinociception”. For the same molecule, the “antinociception, colonic distension model” value (dogs [7]; 0.8 mg/kg SC, 45 minutes, ref Sawyer, et. al. 1991) was “did produce a significant effect; also recorded: significant antinociception”, the “response, colonic distension nociceptive model” value (dogs [7]; doses up to 0.4 mg/kg SC, 45 minutes, ref Sawyer et al., 1991) was “failed to produce a significant response” and the “statistically significant decrease in rectal temperature compared to baseline” value (healthy dogs [8]) was “did not occur”.
